Measured values published in patent US9096608B2, “Pharmaceutically active pyrazolo-triazine derivatives” (LEAD DISCOVERY CENTER GMBH, priority 2012, dated 2015).

How the values were obtained:
Type in all cases: biochemical
CDK2/CycA = molecular target: T1, CDK2/CycA (Homo sapiens, UniProt P24941); test: CDK2 Enzymatic Activity Assay (Lance Kinase Activity Assay, FRET); details: Table 5B; symbols per IC50 ranges of b615
T1 construct: purchased Proqinase
How it was run: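 Compounds serially diluted 1:3 over 8 steps, run with CDK2/CycA, ULight-MBP substrate and ATP in HEPES pH 7.5 buffer for 1 h at room temperature. LANCE TR-FRET detection with Eu-anti-phospho-MBP after EDTA stop; IC50 from sigmoidal dose-response curves.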

CDK7/CycH/Mat1 = molecular target: T2, CDK7/CycH/Mat1 (Homo sapiens, UniProt P50613); test: CDK7 Enzymatic Activity Assay (Lance Kinase Activity Assay, FRET); details: Table 5A; 25 μM ATP final; read-out: CDK7: IC50 [mM] for CDK7 inhibition (the above defined ranges apply)
T2 construct: purchased Carna
How it was run: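 TR-FRET (LANCE) kinase assay with ULight-MBP peptide substrate and Eu-labelled anti-phospho antibody; compounds in 8-point 1:3 series in HEPES 50 mM pH 7.5, MgCl2 10 mM, EGTA 1 mM, DTT 2 mM, 0.01% Tween-20.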

CDK9/Cyclin T1 = molecular target: T3, CDK9/Cyclin T1 (Homo sapiens, UniProt P50750); test: CDK9 Enzymatic Activity Assay (Lance Kinase Activity Assay, FRET); details: Table 5B; symbols per IC50 ranges of b615
T3 construct: purchased Invitrogen
How it was run: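 TR-FRET detection of ULight-MBP substrate phosphorylation by CDK9/cyclin T1 using a Eu-anti-phospho-MBP antibody, in 50 mM HEPES pH 7.5, 10 mM MgCl2, 1 mM EGTA, 2 mM DTT, 0.01% Tween-20. Kinase reaction 1 h at room temperature, then EDTA detection buffer for 1 h before reading.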

T2 sequence (P50613 whole entry): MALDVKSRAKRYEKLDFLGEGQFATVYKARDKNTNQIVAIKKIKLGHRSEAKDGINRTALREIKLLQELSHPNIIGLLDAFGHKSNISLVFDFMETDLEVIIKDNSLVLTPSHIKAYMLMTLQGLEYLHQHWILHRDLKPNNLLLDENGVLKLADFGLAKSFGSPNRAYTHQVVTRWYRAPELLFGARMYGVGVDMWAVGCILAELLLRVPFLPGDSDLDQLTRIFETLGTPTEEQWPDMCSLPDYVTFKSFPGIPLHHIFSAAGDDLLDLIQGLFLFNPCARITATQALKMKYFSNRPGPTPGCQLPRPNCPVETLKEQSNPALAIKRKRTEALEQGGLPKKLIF
T2 sequence (P51946 whole entry partner): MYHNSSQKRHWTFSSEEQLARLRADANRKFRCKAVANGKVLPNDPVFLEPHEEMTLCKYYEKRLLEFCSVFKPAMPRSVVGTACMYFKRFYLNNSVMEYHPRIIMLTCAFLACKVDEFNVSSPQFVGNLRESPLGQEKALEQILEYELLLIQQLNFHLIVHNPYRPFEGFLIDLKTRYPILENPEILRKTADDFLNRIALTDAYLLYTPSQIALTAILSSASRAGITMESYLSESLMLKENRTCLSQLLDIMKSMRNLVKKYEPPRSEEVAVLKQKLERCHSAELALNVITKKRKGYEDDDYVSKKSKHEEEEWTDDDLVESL
T2 sequence (P51948 whole entry partner): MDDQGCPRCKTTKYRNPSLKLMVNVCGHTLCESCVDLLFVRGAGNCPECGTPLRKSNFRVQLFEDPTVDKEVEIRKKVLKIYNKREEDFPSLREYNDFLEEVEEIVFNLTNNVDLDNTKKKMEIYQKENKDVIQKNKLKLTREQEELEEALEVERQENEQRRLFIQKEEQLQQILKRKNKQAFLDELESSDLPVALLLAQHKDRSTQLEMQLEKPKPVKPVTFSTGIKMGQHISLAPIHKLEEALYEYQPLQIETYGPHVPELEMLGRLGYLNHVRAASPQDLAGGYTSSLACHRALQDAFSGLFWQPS
T3 sequence (P50750 whole entry): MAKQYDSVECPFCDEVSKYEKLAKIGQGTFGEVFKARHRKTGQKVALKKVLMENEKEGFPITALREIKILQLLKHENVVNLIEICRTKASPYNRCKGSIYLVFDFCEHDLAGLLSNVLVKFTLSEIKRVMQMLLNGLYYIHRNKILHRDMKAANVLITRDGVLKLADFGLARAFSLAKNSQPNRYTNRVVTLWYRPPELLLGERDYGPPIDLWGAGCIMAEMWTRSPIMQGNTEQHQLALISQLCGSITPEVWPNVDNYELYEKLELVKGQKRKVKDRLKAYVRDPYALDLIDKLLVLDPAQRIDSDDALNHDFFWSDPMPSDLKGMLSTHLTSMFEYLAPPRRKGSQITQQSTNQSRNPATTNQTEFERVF
T3 sequence (O60563 whole entry partner): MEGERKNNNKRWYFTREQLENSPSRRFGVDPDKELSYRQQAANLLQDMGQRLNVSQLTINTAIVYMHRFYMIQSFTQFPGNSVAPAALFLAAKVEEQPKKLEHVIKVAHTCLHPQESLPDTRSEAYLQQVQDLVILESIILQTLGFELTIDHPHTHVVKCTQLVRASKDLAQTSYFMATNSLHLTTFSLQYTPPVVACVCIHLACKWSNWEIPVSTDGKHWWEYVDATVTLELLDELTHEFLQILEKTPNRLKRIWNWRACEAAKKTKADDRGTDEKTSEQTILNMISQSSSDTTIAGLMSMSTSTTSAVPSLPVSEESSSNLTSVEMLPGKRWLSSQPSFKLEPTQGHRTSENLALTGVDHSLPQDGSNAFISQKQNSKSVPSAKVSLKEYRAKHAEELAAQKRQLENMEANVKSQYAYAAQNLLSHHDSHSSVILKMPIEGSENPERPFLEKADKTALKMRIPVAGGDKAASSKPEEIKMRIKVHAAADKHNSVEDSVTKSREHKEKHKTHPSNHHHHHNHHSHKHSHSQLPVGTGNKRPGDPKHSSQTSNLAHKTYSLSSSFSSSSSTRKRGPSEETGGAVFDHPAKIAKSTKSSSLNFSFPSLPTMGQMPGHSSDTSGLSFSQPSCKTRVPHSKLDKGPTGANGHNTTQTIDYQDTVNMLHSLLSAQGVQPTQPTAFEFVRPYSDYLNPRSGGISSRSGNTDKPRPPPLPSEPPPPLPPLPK

CDK2 IC50 range class (CDK2/CycA)	IC50 (CDK7/CycH/Mat1) [nM]	CDK9: Selectivity of CDK7 inhibition over CDK9 inhibition [fold] (CDK9/Cyclin T1)	Compound
+++ (IC50>2500 nM)	> 100	+++ (IC50>2500 nM)	COc1cccc([C@H](C)Nc2nc(C(=O)N(C)CCN3CCOCC3)nc3c(C(C)C)cnn23)c1 [(XXVI-2), (S)-8-isopropyl-4-((1-(3-methoxyphenyl)ethyl)amino)-N-methyl-N-(2-morpholinoethyl)pyrazolo[1,5-a][1,3,5]triazine-2-carboxamide]
+++ (IC50>2500 nM)	< 10	+++ (IC50>2500 nM)	COc1cccc([C@H](C)Nc2nc(OC3CNC3)nc3c(C(C)C)cnn23)c1 [(VII-bv), (S)-2-(azetidin-S-yloxy)-8-isopropyl-N-(1-(3-methoxyphenyl)ethyl)pyrazolo[1,5-a][1,3,5]triazin-4-amine]
+++ (IC50>2500 nM)	< 10	+++ (IC50>2500 nM)	CC(C)c1cnn2c(NC(C)c3cccc4c3cnn4C)nc(O[C@@H]3CCCNC3)nc12 (stereo partly drawn) [(VII-bh), 8-isopropyl-N-(1-(1-methyl-1H-indazol-4-yl)ethyl)-2-((R)-piperidin-3-yloxy)pyrazolo[1,5-a][1,3,5]triazin-4-amine]
+++ (IC50>2500 nM)	> 100	+++ (IC50>2500 nM)	COc1cc(OC)cc(C(C)Nc2nc(O[C@@H]3CCCNC3)nc3c(C(C)C)cnn23)c1 (stereo partly drawn) [(VII-bg), N-(1-(3,5-dimethoxy-phenyl)ethyl)-8-isopropyl-2-((R)-piperidin-3-yloxy)pyrazolo[1,5-a][1,3,5]triazin-4-amine]
+++ (IC50>2500 nM)	< 10	+++ (IC50>2500 nM)	COc1cccc([C@H](C)Nc2nc(OC3COC4(CCNCC4)C3)nc3c(C(C)C)cnn23)c1 (stereo partly drawn) [(VII-bx), 2-(1-oxa-8-azaspiro[4.5]decan-3-yloxy)-8-isopropyl-N-((S)-1-(3-methoxyphenyl)ethyl)pyrazolo[1,5-a][1,3,5]triazin-4-amine]
+++ (IC50>2500 nM)	> 100	+++ (IC50>2500 nM)	COc1cccc([C@H](C)Nc2nc(CN3CC(N4CCC(F)(F)C4)C3)nc3c(C(C)C)cnn23)c1 [(XXIX-9), (S)-2-((3-(3,3-difluoropyrrolidin-1-yl)azetidin-1-yl)methyl)-8-isopropyl-N-(1-(3-methoxyphenyl)ethyl)pyrazolo[1,5-a][1,3,5]triazin-4-amine]
+++ (IC50>2500 nM)	< 10	+++ (IC50>2500 nM)	CC(C)c1cnn2c(N[C@@H](C)c3ccccc3)nc([S+]([O-])C3CCNCC3)nc12 (stereo partly drawn) [(X-a), 8-isopropyl-N-((S)-1-phenylethyl)-2-(piperidin-4-ylsulfinyl)pyrazolo[1,5-a][1,3,5]triazin-4-amine]
+++ (IC50>2500 nM)	< 10	+++ (IC50>2500 nM)	CC(C)c1cnn2c(NC(C)c3ccccc3S(=O)(=O)N3CCCC3)nc(O[C@@H]3CCCNC3)nc12 (stereo partly drawn) [(VII-bz), 8-isopropyl-2-((R)-piperidin-3-yloxy)-N-(1-(2-(pyrrolidin-1-ylsulfonyl)phenyl)ethyl)pyrazolo[1,5-a][1,3,5]triazin-4-amine]
+++ (IC50>2500 nM)	30 to 100	+++ (IC50>2500 nM)	COc1cccc([C@H](C)Nc2nc(NCCCN)nc3c(C(C)C)cnn23)c1 [(VIII-t), (S)-N2-(3-aminopropyl)-8-isopropyl-N4-(1-(3-methoxyphenyl)ethyl)pyrazolo[1,5-a][1,3,5]triazine-2,4-diamine]
+++ (IC50>2500 nM)	10 to 30	+++ (IC50>2500 nM)	COc1cccc([C@H](C)Nc2nc(S(=O)(=O)C3CCNCC3)nc3c(C(C)C)cnn23)c1 [(X-f), (S)-8-isopropyl-N-(1-(3-methoxyphenyl)ethyl)-2-(piperidin-4-ylsulfonyl)pyrazolo[1,5-a][1,3,5]triazin-4-amine]
+++ (IC50>2500 nM)	30 to 100	+++ (IC50>2500 nM)	COc1cccc([C@H](C)Nc2nc(NCCOCCN)nc3c(C(C)C)cnn23)c1 [(VIII-u), (S)-N2-(2-(2-aminoethoxy)ethyl)-8-isopropyl-N4-(1-(3-methoxyphenyl)ethyl)pyrazolo[1,5-a][1,3,5]triazine-2,4-diamine]
+++ (IC50>2500 nM)	> 100	+++ (IC50>2500 nM)	COc1cccc([C@H](C)Nc2nc(CNCCN3CCOCC3)nc3c(C(C)C)cnn23)c1 [(XXIX-7), (S)-8-isopropyl-N-(1-(3-methoxyphenyl)ethyl)-2-(((2-morpholinoethyl)amino)methyl)pyrazolo[1,5-a][1,3,5]triazin-4-amine]

Continued, compound first:

Compound	CDK2 IC50 range class (CDK2/CycA)	IC50 (CDK7/CycH/Mat1) [nM]	CDK9: Selectivity of CDK7 inhibition over CDK9 inhibition [fold] (CDK9/Cyclin T1)
CC(C)c1cnn2c(N[C@@H](C)c3ccccc3C(F)(F)F)nc(O[C@@H]3CCCNC3)nc12 [(VII-ah), 8-isopropyl-2-((R)-piperidin-3-yloxy)-N-((S)-1-(2-(trifluoromethyl)phenyl)ethyl)pyrazolo[1,5-a][1,3,5]triazin-4-amine]	+++ (IC50>2500 nM)	10 to 30	+++ (IC50>2500 nM)
CC(C)COc1cccc([C@H](C)Nc2nc(O[C@@H]3CCCNC3)nc3c(C(C)C)cnn23)c1 [(VII-bb), N-((S)-1-(3-isobutoxyphenyl)ethyl)-8-isopropyl-2-((R)-piperidin-3-yloxy)pyrazolo[1,5-a][1,3,5]triazin-4-amine]	+++ (IC50>2500 nM)	30 to 100	+++ (IC50>2500 nM)
CCOc1ccccc1[C@H](C)Nc1nc(O[C@@H]2CCCNC2)nc2c(C(C)C)cnn12 [(VII-aw), N-((S)-1-(2-ethoxyphenyl)ethyl)-8-isopropyl-2-((R)-piperidin-3-yloxy)pyrazolo[1,5-a][1,3,5]triazin-4-amine]	+++ (IC50>2500 nM)	> 100	+++ (IC50>2500 nM)
CC(C)c1cnn2c(N[C@@H](C)c3cccc(OC(F)(F)F)c3)nc(O[C@@H]3CCCNC3)nc12 [(VII-ay), 8-isopropyl-2-((R)-piperidin-3-yloxy)-N-((S)-1-(3-(trifluoro-methoxy)phenyl)ethyl)pyrazolo[1,5-a][1,3,5]triazin-4-amine]	+++ (IC50>2500 nM)	10 to 30	+++ (IC50>2500 nM)
COc1ccc([C@H](C)Nc2nc(OC3CCN(C)CC3)nc3c(C(C)C)cnn23)cc1 [(VII-aa), (S)-8-isopropyl-N-(1-(4-methoxyphenyl)ethyl)-2-((1-methylpiperidin-4-yl)oxy)pyrazolo[1,5-a][1,3,5]triazin-4-amine]	+++ (IC50>2500 nM)	> 100	+++ (IC50>2500 nM)
COc1ccc(OC)c([C@H](C)Nc2nc(O[C@@H]3CCCNC3)nc3c(C(C)C)cnn23)c1 [(VII-bd), N-((S)-1-(2,5-dimethoxy-phenyl)ethyl)-8-isopropyl-2-((R)-piperidin-3-yloxy)pyrazolo[1,5-a][1,3,5]triazin-4-amine]	+++ (IC50>2500 nM)	> 100	+++ (IC50>2500 nM)
CC(C)c1cnn2c(N[C@@H](C)c3ccc(Cl)cc3)nc(O[C@@H]3CCCNC3)nc12 [(VII-al), N-((S)-1-(4-chlorophenyl)ethyl)-8-isopropyl-2-((R)-piperidin-3-yloxy)pyrazolo[1,5-a][1,3,5]triazin-4-amine]	+++ (IC50>2500 nM)	> 100	+++ (IC50>2500 nM)
CC(C)c1cnn2c(NC(C)c3ccccc3N3CCCCC3)nc(O[C@@H]3CCCNC3)nc12 (stereo partly drawn) [(VII-aq), 8-isopropyl-N-(1-(2-(piperidin-1-yl)phenyl)ethyl)-2-((R)-piperidin-3-yloxy)pyrazolo[1,5-a][1,3,5]triazin-4-amine]	+++ (IC50>2500 nM)	> 100	+++ (IC50>2500 nM)
COc1ccc(C(C)Nc2nc(O[C@@H]3CCCNC3)nc3c(C(C)C)cnn23)cc1 (stereo partly drawn) [(VII-an), 8-isopropyl-N-(1-(4-methoxyphenyl)ethyl)-2-((R)-piperidin-3-yloxy)pyrazolo[1,5-a][1,3,5]triazin-4-amine]	+++ (IC50>2500 nM)	> 100	+++ (IC50>2500 nM)
CC(C)c1cnn2c(N[C@@H](C)c3cccc(F)c3)nc(O[C@@H]3CCCNC3)nc12 [(VII-ak), N-((S)-1-(3-fluorophenyl)ethyl)-8-isopropyl-2-((R)-piperidin-3-yloxy)pyrazolo[1,5-a][1,3,5]triazin-4-amine]	+++ (IC50>2500 nM)	30 to 100	+++ (IC50>2500 nM)
